In patent publication US20260284189A1, “TREATMENT OF NON-SMALL CELL LUNG CANCER” (ASTRAZENECA AB, priority 2023, published 2026):

Test system: resectable non-small cell lung cancer (R-NSCLC)
Assay: AEGEAN phase III: pathological response (pCR, MPR) by central pathology review
Assay type: in vivo, human
Conditions: final analysis
From the text: As used herein, the terms “pathological complete response” or “pathological CR” or “pCR” refer to the proportion of patients who have 0% residual viable tumor cells within all resected tissue (including primary lung lesion and lymph nodes) following neoadjuvant treatment as assessed by central pathology laboratory. […] Central pathology assessment of pCR will be performed according to the recommended methods and definitions described by IASLC 2020 (Travis et al. “IASLC Multidisciplinary Recommendations for Pathologic Assessment of Lung Cancer Resection Specimens After Neoadjuvant Therapy.” J Thorac Oncol. 2020 May; 15(5):709-740. doi:10.1016/j.jtho.2020.01.005). The analysis can be performed using a Cochran-Mantel-Haenszel (CMH) test, stratified by disease stage (Stage II versus Stage III) and PD-L1 expression status (<1% versus ≥1%). The effect of treatment will be estimated by the difference in proportions between treatment groups, together with their corresponding CI and p-value.
As used herein, the terms “major pathological response” and “mPR” refer to the proportion of patients with 10% or less residual viable tumor tissue in lung primary tumor after neoadjuvant treatment at the time of resection as assessed per central pathology laboratory. […]
Primary tumors and sampled lymph nodes were assessed for pathological response to neoadjuvant treatment by central pathology review using recommendations from the IASLC. […] 2020 May; 15(5):709-740. doi: 10.1016/j.jtho.2020.01.005; Hellmann et al. “Pathological response after neoadjuvant chemotherapy in resectable non-small-cell lung cancers: proposal for the use of major pathological response as a surrogate endpoint.” Lancet Oncol 2014; 15(1):e42-50; Cottrell et al. “Pathologic features of response to neoadjuvant anti-PD-1 in resected non-small-cell lung carcinoma: a proposal for quantitative immune-related pathologic response criteria (irPRC).” Ann Oncol 2018; 29(8):1853-1860). […]
For pathological endpoints, response rates were compared between treatment arms using a stratified Cochran-Mantel-Haenszel test; the treatment effect was estimated by the differences in response rates, with their corresponding 95% confidence intervals (CIs) calculated by the stratified Miettinen and Nurminen method. EFS was compared between the treatment arms using a stratified log-rank test; the treatment effect was estimated by HRs and 95% CIs calculated with stratified Cox-proportional-hazards models. […] For pCR, the differences in response rates were calculated for each subgroup, with corresponding 95% CIs estimated using an unstratified Miettinen and Nurminen method; for EFS, HRs and 95% CIs were calculated for each subgroup using a Cox-proportional-hazards model with treatment as the only covariate.

Durvalumab: antibody that selectively binds PD-L1 and blocks binding of PD-L1 to PD-1 and CD80; arm given with platinum-based chemotherapy before surgery
MPR, proportion of patients (mITT N=366, central review): 33.3% | pCR, proportion of patients (mITT N=366, central review): 17.2% | MPR difference in proportions, durvalumab arm versus placebo arm (mITT N=740): 21.0 | pCR difference in proportions, durvalumab arm versus placebo arm (mITT N=740): 13.0%
